US8247211B2, “Glycopeptide antibiotics” (American Cyanamid Company, priority 2001, dated 2012)
≈ marks a conversion by molar mass, not a printed value.

Legend:
Test in all cases: In vitro antibacterial evaluation: minimum inhibitory concentration (MIC), broth dilution method
Assay type in all cases: cell-based
[1] = system: Escherichia coli
[2] = system: Escherichia coli; remark: listed apart in the source
Procedure, shortened: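 Broth dilution per NCCLS M7-A2 in Muller-Hinton II […], inoculum 5×10^5 CFU/mL, antibiotic tested over 64-0.06 μg/mL. MIC is taken as the lowest concentration that inhibits growth. Panel includes recent clinical isolates resistant to methicillin, penicillin and/or vancomycin.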

[3] = system: Staphylococcus sp.; details: 18 hours at 35° C.
Procedure, shortened: (§1)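 Inoculum: 5×10^5 CFU/mL. Range: 64-0.06 μg/mL. Medium: Muller-Hinton II […]; NCCLS M7-A2 broth dilution. Endpoint: lowest concentration inhibiting growth. Strains include methicillin-, penicillin- and/or vancomycin-resistant clinical isolates.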

[4] = system: Enterococcus sp.
Procedure, shortened: as §1

MIC Escherichia coli (ATCC 25922) [1]: >64 µg/mL
MIC Escherichia coli (GC 4559) ([2]; Escherichia coli (GC 4559)): 64 µg/mL (≈ 46.2 µM)
MIC Escherichia coli (GC 4560) ([2]; Escherichia coli (GC 4560)): 4 µg/mL (≈ 2.89 µM)
MIC Coagulase Negative Staphylococcus (GC 4547) [3]: 8 µg/mL (≈ 5.77 µM)
MIC Coagulase Negative Staphylococcus (GC 4547) ([3]; broth dilution): 8 µg/mL (≈ 5.77 µM)
MIC Coagulase Negative Staphylococcus (GC 4548) [3]: 4 µg/mL (≈ 2.89 µM)
MIC Coagulase Negative Staphylococcus (GC 4548) ([3]; broth dilution): 4 µg/mL (≈ 2.89 µM)
MIC Coagulase Negative Staphylococcus (GC 4549) [3]: 4 µg/mL (≈ 2.89 µM)
MIC Coagulase Negative Staphylococcus (GC 4549) ([3]; broth dilution): 4 µg/mL (≈ 2.89 µM)
MIC Coagulase Negative Staphylococcus (GC 4551) [3]: 8 µg/mL (≈ 5.77 µM)
MIC Coagulase Negative Staphylococcus (GC 4551) ([3]; broth dilution): 8 µg/mL (≈ 5.77 µM)
MIC Staphylococcus aureus (ATCC 29213) [3]: 16 µg/mL (≈ 11.5 µM)
MIC Staphylococcus aureus (ATCC 29213) ([3]; broth dilution): 16 µg/mL (≈ 11.5 µM)
MIC Staphylococcus aureus (GC 1131) [3]: 32 µg/mL (≈ 23.1 µM)
MIC Staphylococcus aureus (GC 1131) ([3]; broth dilution): 32 µg/mL (≈ 23.1 µM)
MIC Staphylococcus aureus (GC 4541) [3]: 8 µg/mL (≈ 5.77 µM)
MIC Staphylococcus aureus (GC 4541) ([3]; broth dilution): 8 µg/mL (≈ 5.77 µM)
MIC Staphylococcus aureus (GC 4542) [3]: 8 µg/mL (≈ 5.77 µM)
MIC Staphylococcus aureus (GC 4542) ([3]; broth dilution): 8 µg/mL (≈ 5.77 µM)
MIC Staphylococcus aureus (GC 4544) [3]: 8 µg/mL (≈ 5.77 µM)
MIC Staphylococcus aureus (GC 4544) ([3]; broth dilution): 8 µg/mL (≈ 5.77 µM)
MIC Staphylococcus aureus (GC 4545) [3]: 8 µg/mL (≈ 5.77 µM)
MIC Staphylococcus aureus (GC 4545) ([3]; broth dilution): 8 µg/mL (≈ 5.77 µM)
MIC Staphylococcus aureus-SMITH (GC 4543) [3]: 8 µg/mL (≈ 5.77 µM)
MIC Staphylococcus aureus-SMITH (GC 4543) ([3]; broth dilution): 8 µg/mL (≈ 5.77 µM)
MIC Enterococcus avium (GC 4558) ([4]; Enterococcus avium (GC 4558)): 64 µg/mL (≈ 46.2 µM)
MIC Enterococcus faecalis (ATCC 29212) ([4]; Enterococcus faecalis (ATCC 29212)): 64 µg/mL (≈ 46.2 µM)
MIC Enterococcus faecalis (GC 4553) ([4]; Enterococcus faecalis (GC 4553)): 64 µg/mL (≈ 46.2 µM)
MIC Enterococcus faecalis (GC 4554) ([4]; Enterococcus faecalis (GC 4554)): >64 µg/mL
MIC Enterococcus faecium (GC 2243) ([4]; Enterococcus faecium (GC 2243)): 64 µg/mL (≈ 46.2 µM)
MIC Enterococcus faecium (GC 4556) ([4]; Enterococcus faecium (GC 4556)): 64 µg/mL (≈ 46.2 µM)
MIC Enterococcus faecium (GC 4557) ([4]; Enterococcus faecium (GC 4557)): 8 µg/mL (≈ 5.77 µM)
MIC Enterococcus faecalis (GC 2242) ([4]; broth dilution, 18 hours at 35° C., strain GC 2242): 4 µg/mL (≈ 2.89 µM)
MIC Enterococcus faecalis (GC 2691) ([4]; broth dilution, 18 hours at 35° C., strain GC 2691): 64 µg/mL (≈ 46.2 µM)
SMILES: CC(C)CC(=O)OC1C(O)C(CO)OC(OC2C(CO)OC(Oc3ccc(CC4NC(=O)C(C(C)c5cccs5)NC(=O)CNC(=O)C(CO)NC(=O)C(C(O)C5CNC(=N)N5C5OC(CO)C(O)C(O)C5O)NC(=O)C(C(O)C5CNC(=N)N5)NC4=O)cc3)C(O)C2O)C1O (stereo not drawn) [Example 265b]
MIC Staphylococcus haemolyticus (GC 4546) [3]: 8 µg/mL (≈ 5.77 µM)
MIC Staphylococcus haemolyticus (GC 4546) ([3]; broth dilution): 8 µg/mL (≈ 5.77 µM)
